Here are results for one compound from the NIST ThermoML archive (doi:10.1016/j.jct.2017.07.009).

For this series the following is noted: 1410 K; Crystal; Calculated from knudsen effusion weight loss.

As to `[O-2].[Zn+2]` [zinc(II) oxide], the vapor or sublimation pressure (commonly the pressure of vapour in equilibrium with the condensed phase) is 0.00842 kPa.
